The values below come from PubChem BioAssay AID179 (DTP/NCI, 2004).

Activity calls are given as the source filed them.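 Rule for the calls: active = compounds giving half or more protection of infected cells from virus-caused growth loss, again on retest; inactive = the rest.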 Where a SMILES comes first, the peptide text is derived from it.

The assay concerns CEM cells HIV-1 protection, formazan growth assay. Briefly: NCI AIDS Antiviral Assay. The conditions noted are these: for IC50: measured here: growth of uninfected CEM cells. A digest of the protocol:
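CEM (human) cells, HIV-1 infected vs uninfected, 5-point dosing, formazan growth read-out. Retest threshold 50% protection.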

Broadly, the EC50 is the midpoint of the concentration-response curve. As a reminder, the IC50 is the concentration that inhibits the measured activity by half. Read a low IC50 as inhibition by little substance.

Take `O=C(/N=C1/OC(CN2CCOCC2)CN1C(=O)Nc1ccccc1)Nc1ccccc1` (stereo unspecified): the EC50 is more than 200 µM and the IC50 is more than 200 µM.

On to `O=C1c2ccccc2C(=O)C2C3c4ccccc4C(c4ccccc43)C12` (stereo unspecified), for which the EC50 was more than 15.5 µM and the concentration for half-maximal inhibition (IC50) is more than 15.5 µM.

As for `COC(=O)[C@@H]1CC2(CCOCc3ccccc3)C=CCN3CC[C@@]1(c1ccccc1NC(=O)C(C)(C)C)C32` (stereo partly specified), the EC50 was more than 126 µM and the IC50 is more than 126 µM.

As for `CSC(=S)N/N=C/c1nccc2ccccc12`, the result was inactive.

`NC(=O)C(=O)Cc1nc2ccccc2s1`: the EC50 was more than 91.2 µM and the IC50 was more than 91.2 µM.

In the case of `Oc1cc(O)c2c(c1)O[C@H](c1cc(O)c(O)c(O)c1)[C@@H](O)C2`, the EC50 is more than 200 µM and the IC50 was 0.603 µM.

As for `COC(=O)CCC(=O)CC(=O)C(=O)Nc1c(Cl)cc([N+](=O)[O-])cc1Cl`, the EC50 was more than 18.2 µM and the IC50 was more than 18.2 µM.

`CN(C)c1ccc(/C=C2\CCCCCC2=O)cc1`: the EC50 is more than 200 µM and the IC50 turned out to be 26.9 µM.

`CC(=O)c1cccc(C(C)=O)c1N=Cc1ccc(Cl)cc1`: the EC50 is more than 200 µM and the IC50 turned out to be 13.2 µM.

As for `CC1C(c2ccc(Cl)cc2)c2cc3c(cc2OC1N1CCOCC1)OCO3` (stereo unspecified), the EC50 was more than 100 µM and the IC50 came out at 21.4 µM.

Turning to `CC1(C)OC(=O)c2c(cc(N3CCOCC3)oc2=O)O1`, the EC50 was more than 200 µM and the IC50 was more than 200 µM.

In the case of `Cc1cc(C)c2c(c1)C(=O)/C(=C/c1ccccc1C(=O)O)C2`, the outcome was inactive.

Regarding `c1ccc(-c2cnnc3c4ccccc4nn23)cc1`, the EC50 was more than 200 µM and the IC50 is more than 200 µM.

As to `O=c1cc(NNc2cccc3ccccc23)[nH]c(=O)[nH]1`, the EC50 was more than 200 µM and the half-maximal inhibitory concentration (IC50) worked out at 4.9 µM.

Take `CC(=O)C(O)N1C(=O)C=CC1=O` (stereo unspecified): the EC50 was more than 50.1 µM and the IC50 came out at 1.86 µM.

Turning to `CC(C)CCCC(C)C1CCC2[C@@H]3CCC4C[C@@H](CC=C(c5cc(Cl)c(O)c(C(=O)O)c5)c5cc(Cl)c(O)c(C(=O)O)c5)CC[C@]4(C)C3CC[C@]12C` (stereo partly specified), the EC50 is 21.4 µM and the IC50 is 316 µM.

For `CC1C(=O)CC2C3(C)CCC2(C(C)C(=O)O)C(=O)C13` (stereo unspecified), the EC50 was more than 275 µM and the IC50 came to 224 µM.

`CN(Cc1cnc2nc(N)nc(N)c2n1)c1ccc(C(=O)NC(CCC(=O)NC(CC(P(=O)(O)O)P(=O)(O)O)C(=O)O)C(=O)O)cc1` (stereo unspecified): the EC50 is more than 100 µM and the IC50 came out at 0.219 µM.

Take `Clc1nnc(-c2ccccc2)s1`: the EC50 is more than 200 µM and the IC50 was 87.1 µM.

On to `NC1CNC(=O)c2c(Cl)sc(Cl)c21` (stereo unspecified), for which the EC50 was more than 200 µM and the IC50 is more than 200 µM.

With `COc1cc(/C=C2/C(=O)N=C(NC(C)=O)N2C)ccc1OC(C)=O`, the EC50 was more than 200 µM and the IC50 was more than 200 µM.

Turning to `Cc1ccc2c(c1)nc1sc(C)cc(=O)n12`, the EC50 was more than 200 µM and the IC50 was more than 200 µM.

On to `CCOC(=O)/C=C1\SC12C(C)(C)CCCC2(C)C`, for which the EC50 is more than 200 µM and the IC50 was found to be 61.7 µM.

Take `CC(C)(C)n1c(=O)n(C(=O)C(Cl)(Cl)Cl)n(C(=O)C(Cl)(Cl)Cl)c1=O`: the EC50 is more than 200 µM and the IC50 was more than 200 µM.

For the molecule `O=C(O)CN(CCNC(=O)OCC1c2ccccc2-c2ccccc21)CCNC(=O)OCC1c2ccccc2-c2ccccc21`, the EC50 was more than 200 µM and the IC50 was 39.8 µM.

In the case of `Cc1cc(N=Nc2c(C)ccc3ncccc23)ccc1N`, the EC50 was more than 200 µM and the IC50 turned out to be 0.603 µM.

With `CCCCc1c2c(nc3c1CCc1cc4cc5c(nc4nc1-3)-c1nc3c(c(CCCC)c1CC5)CCC/C3=N/OC)/C(=N\OC)CCC2`, the EC50 was more than 100 µM and the IC50 was 0.347 µM.

Turning to `CC(C)(C)[Si](C)(C)OC1C(n2ccc(=O)[nH]c2=O)OC(COC(c2ccccc2)(c2ccccc2)c2ccccc2)C1(CC#N)Sc1ccccc1` (stereo unspecified), the EC50 was more than 200 µM and the IC50 is more than 200 µM.

For the molecule `CC(C)(C)NC(=S)N/N=C/c1ccccn1`, the EC50 was more than 0.2 µM and the IC50 was 0.0288 µM.

Take `CC(=O)Nc1ccc(-c2nnc(SCC(=O)Nc3ccc(Cl)cc3Cl)o2)cc1`: the EC50 was more than 42.7 µM and the IC50 is 25.1 µM.

For `Nc1nc(Cl)c(N=Nc2ccc(Cl)cc2)c(NCC2(CO)CC2)n1`, the EC50 was more than 200 µM and the IC50 was more than 200 µM.

As to `CC(C)(O)S(=O)(=O)O`, the EC50 was more than 200 µM and the IC50 is more than 200 µM.

Take `CC1=CCCC2C1(C)CCC(C)C2(C)Cc1cc(O)ccc1O` (stereo unspecified): the EC50 was more than 100 µM and the IC50 is 12 µM.

Turning to `COc1cc(C2(C)OC(=O)c3ccccc32)c(OC)c2ccccc12` (stereo unspecified), the EC50 is more than 44.7 µM and the IC50 was determined as 7.76 µM.

Turning to `Cc1cc(N(CCC#N)CCC#N)ccc1/C=C1N=C(/C=C\c2ccccc2)N(NC(=O)CC(=O)Nc2ccccc2Cl)C\1=O`, the outcome was inactive.

As to `COC(=O)c1cc(C(=CCCC(C)[C@H]2CCC3C4CC[C@@H]5CC(F)(F)CC[C@]5(C)C4CC[C@@]32C)c2cc(Cl)c(OC)c(C(=O)OC)c2)cc(Cl)c1OC` (stereo partly specified), the EC50 is more than 100 µM and the IC50 was more than 100 µM.

`CCOC(OCC)[C@H](N)[C@@H](O)[C@@H](O)[C@H]1COC(C)(C)O1`: the EC50 was more than 200 µM and the IC50 was more than 200 µM.

With `CCO/C(CCn1[nH]c(=O)c(Cl)c(Cl)c1=O)=N\NC(=O)C(=O)NN`, the EC50 is more than 7.08 µM and the IC50 is more than 7.08 µM.

For `CC(=O)N(CCCCNC(=O)C(F)(F)F)CCCNC(=O)C(F)(F)F`, the EC50 was more than 200 µM and the IC50 is more than 200 µM.

Regarding `Nc1n(CC(=O)c2ccccc2)nc2sc(-c3ccccc3)n[n+]12`, the EC50 is more than 200 µM and the IC50 was 10.2 µM.

As for `Cc1cc2ccc(=O)oc2c2c1OC(C)(C)[C@H](OC(=O)C13CCC(C)(C(=O)O1)C3(C)C)[C@@H]2OC(=O)C12CCC(C)(C(=O)O1)C2(C)C` (stereo partly specified), the EC50 was 0.562 µM and the IC50 is 24 µM.

As to `CC1(C)CC(Nc2ccc(Nc3ccccc3)cc2)CC(C)(C)N1`, the EC50 is more than 562 µM and the IC50 worked out at 4.27 µM.

Take `C/C=C(/I)CBr`: the EC50 was more than 955 µM and the IC50 was 479 µM.

On to `CC(=O)Nc1ccc(SS(=O)(=O)c2ccc(NC(C)=O)cc2)cc1`, for which the EC50 was more than 490 µM and the IC50 is 204 µM.

As to `CCCCCCCCCCCCCCCC(=O)OCCOCCOCCOCc1ccccc1`, the result was inactive.

On to `O=C1C2C3C=CC(CC3)C2C(=O)C2C3C=CC(C3)C12` (stereo unspecified), for which the EC50 was more than 200 µM and the IC50 was found to be 129 µM.

On to `O=C(O)CCSCCCCCCCCCCCCSCCC(=O)O`, for which the EC50 is more than 91.2 µM and the IC50 was more than 91.2 µM.

Consider `COC(=O)/N=[N+](\[O-])C(c1ccc(Cl)cc1)c1ccc(Cl)cc1`, for which the EC50 was more than 200 µM and the IC50 was found to be 64.6 µM.

Consider `CC(C)=CC(Cc1ccccc1)S(=O)(=O)c1nc2ccccc2s1` (stereo unspecified), for which the EC50 was more than 200 µM and the IC50 was determined as 10 µM.

`N/N=C1\C(=O)N(c2ccc(Cl)cc2Cl)C(=O)C(=O)C1c1nc2ccccc2o1` (stereo unspecified): the result was inactive.

As to `CCCc1cc(=O)oc2c3c(cc(OC(C)COC)c12)O[C@H](C)[C@@H](C)[C@@H]3O` (stereo partly specified), the EC50 was 4.68 µM and the IC50 was found to be 29.5 µM.

With `O=C1OCC2=C1C(c1ccc(Cl)cc1)c1cc3c(cc1O2)OCO3` (stereo unspecified), the EC50 was more than 200 µM and the IC50 is 3.98 µM.

Consider `CCC(C)C(NC(=O)C(CCCN=C(N)N)NC(=O)C(CC(=O)O)NC(=O)C(Cc1cnc[nH]1)NC(=O)C(N)CC(C)C)C(=O)NC(C(=O)NC(CC(C)C)C(=O)NC(C(=O)NC(Cc1cnc[nH]1)C(=O)O)C(C)O)C(C)CC` (stereo unspecified) (H-LHDRIILTH-OH; configuration not given here), for which the EC50 was more than 44.7 µM and the IC50 was more than 44.7 µM.

On to `Cc1ccc(S(=O)(=O)c2c(O)c3ccc(O)c(C)c3oc2=O)cc1`, for which the EC50 is more than 200 µM and the IC50 is more than 200 µM.

For `Cc1cn(C2CC3C(COC(=O)N3O)O2)c(=O)[nH]c1=O` (stereo unspecified), the EC50 was 50.1 µM and the IC50 was more than 200 µM.

Consider `COc1ccc2c(ccc3c(C(=O)NCCN(C)CCNC(=O)c4cn(C)c5c4ccc4cc(OC)ccc45)cn(C)c32)c1`, for which the EC50 was more than 200 µM and the IC50 was 1.15 µM.

With `Cc1cn(C2CC(NC(=O)N(C)O)C(CO[Si](C)(C)C(C)(C)C)O2)c(=O)[nH]c1=O` (stereo unspecified), the EC50 is more than 200 µM and the IC50 was 107 µM.

With `COC(=O)c1ccc[c]([Sb](=[O])([OH])[OH])c1`, the EC50 is more than 200 µM and the IC50 turned out to be 91.2 µM.

For `Cc1cc(N(CCC#N)CCC#N)ccc1/C=C1\N=C(c2cc([N+](=O)[O-])ccc2Cl)N(c2cccc(Cl)c2)C1=O`, the EC50 is more than 12.6 µM and the IC50 is more than 12.6 µM.

Turning to `Nn1ccc(=O)c2c1-c1ccccc1C(c1ccccc1)c1ccccc1-2` (stereo unspecified), the EC50 is more than 200 µM and the IC50 was determined as 24 µM.

In the case of `CC(C)CCCC(C)[C@H]1CCC2[C@@H]3CCC4C[C@@H](CCC=C(c5cc(Cl)c(O)c(C(=O)NO)c5)c5cc(Cl)c(O)c(C(=O)NO)c5)CC[C@]4(C)C3CC[C@@]21C` (stereo partly specified), the EC50 is more than 200 µM and the IC50 is more than 200 µM.

For `CN(C)CCNc1ccc2ncnc3c2c1C(=O)c1ccccc1-3`, the EC50 is more than 1 µM and the IC50 turned out to be 0.219 µM.

As to `O=S(=O)(Nc1ccc(NS(=O)(=O)c2ccccc2)c(N2N=N2)c1)c1ccccc1`, the EC50 is more than 200 µM and the IC50 came out at 51.3 µM.

In the case of `O=c1oc2ccccc2c(O)c1C(c1ccc2c(c1)Cc1ccccc1-2)c1c(O)c2ccccc2oc1=O`, the EC50 is more than 200 µM and the half-inhibitory concentration (IC50) was determined as 46.8 µM.

For `CCCSc1nc(COC(=O)NC)c(COC(=O)NC)n1C`, the EC50 was more than 200 µM and the IC50 came to 83.2 µM.

Take `C/C(CCO)=N\NC(N)=S`: the EC50 was more than 200 µM and the IC50 is more than 200 µM.

As to `Cc1cc(Br)c2nsnc2c1[N+](=O)[O-]`, the EC50 was more than 26.3 µM and the IC50 turned out to be 2.57 µM.

`Cc1ccc(S(=O)(=O)N/N=C/CN2C(=O)c3ccccc3C2=O)cc1`: the EC50 is 182 µM and the IC50 was determined as 191 µM.
